Measured values as given in US10294248B2, “Beta-lactamase inhibitors” (VenatoRx Pharmaceuticals, Inc., priority 2013, dated 2019).

Experiments:
[1] = tested on: K. pneumoniae A-1797 expressing KPC-2 and VIM-4; test: Broth microdilution MIC, K. pneumoniae A-1797 KPC-2/VIM-4; format: cell-based; conditions: fixed 4 μg/mL meropenem; CAMHB, 16-20 hours at 37° C.
Outline: (§1)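 The MIC, judged visually after 16-20 hours at 37° C, is the lowest test-compound level stopping growth when combined with a β-lactam at a constant 4 μg/ml. Compound was titrated two-fold over 32 to 0.25 μg/ml in cation-adjusted Mueller Hinton broth.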

[2] = target: T1, p99 AmpC β-lactamase (Class C) (Enterobacter cloacae, UniProt P05364); test: β-Lactamase inhibition, p99 AmpC; format: biochemical
T1 construct: made in house; host or cells: E. coli BL21(DE3)
T1 sequence (P05364 21-381): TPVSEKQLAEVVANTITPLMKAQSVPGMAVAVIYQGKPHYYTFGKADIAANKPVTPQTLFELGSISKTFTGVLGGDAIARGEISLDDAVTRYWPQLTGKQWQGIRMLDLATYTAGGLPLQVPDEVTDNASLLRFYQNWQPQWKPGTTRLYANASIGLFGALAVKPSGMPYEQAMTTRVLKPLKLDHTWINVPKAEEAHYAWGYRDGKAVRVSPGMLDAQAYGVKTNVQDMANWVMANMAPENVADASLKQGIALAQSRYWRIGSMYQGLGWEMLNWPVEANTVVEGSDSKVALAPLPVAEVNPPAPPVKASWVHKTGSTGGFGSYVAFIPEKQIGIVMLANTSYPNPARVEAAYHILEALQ

[3] = target: T2, OXA-1 β-lactamase (Class D oxacillinase) (Escherichia coli, UniProt P13661); test: β-Lactamase inhibition, OXA-1; format: biochemical; conditions: nitrocefin 100 μM, 486 nm; 15 min preincubation at 37° C., PBS pH 7.4
T2 construct: made in house; host or cells: E. coli BL21(DE3)
T2 sequence (P13661 26-276): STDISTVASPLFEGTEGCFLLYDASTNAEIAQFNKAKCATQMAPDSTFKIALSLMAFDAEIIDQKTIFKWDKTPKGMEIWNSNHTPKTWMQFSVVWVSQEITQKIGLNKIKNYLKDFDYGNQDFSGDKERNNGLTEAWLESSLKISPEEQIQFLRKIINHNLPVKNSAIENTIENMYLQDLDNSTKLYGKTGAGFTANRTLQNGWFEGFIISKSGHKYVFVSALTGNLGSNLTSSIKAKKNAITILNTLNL
Outline: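 Untagged enzyme from E. coli BL21(DE3), purified by Capto S then Superdex 75; 15 min 37 °C preincubation with inhibitor; KPC-2 read with imipenem at 300 nm, SHV-5 with cefotaxime at 260 nm, OXA-1 with nitrocefin 100 μM final at 486 nm; 10 min kinetic read; IC50 vs uninhibited wells.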

[4] = tested on: E. coli ESBL4 expressing CTX-M-15; test: Broth microdilution MIC, E. coli ESBL4 CTX-M-15; format: cell-based; conditions: fixed 4 μg/mL ceftazidime; CAMHB, 16-20 hours at 37° C.
Outline: as §1

[5] = target: T3, VIM-2 metallo-β-lactamase (Class B) (Pseudomonas aeruginosa, UniProt Q9K2N0); test: β-Lactamase inhibition, VIM-2; format: biochemical; conditions: nitrocefin 100 μM, 486 nm; 15 min preincubation at 37° C., PBS pH 7.4
T3 construct: made in house; host or cells: E. coli BL21(DE3)
Outline: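 Nitrocefin hydrolysis, read at 486 nm over 10 min, served as the measure of VIM-2 activity. The enzyme had been incubated with compound for 15 min at 37 °C before 100 μM substrate was added, and IC50 values were fitted from percent inhibition of the initial rate.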

[6] = target: T4, KPC-2 β-lactamase (Class A carbapenemase) (Klebsiella pneumoniae, UniProt Q9F663); test: β-Lactamase inhibition, KPC-2; format: biochemical; conditions: imipenem substrate, 300 nm; 15 min preincubation at 37° C., PBS pH 7.4
T4 construct: made in house; host or cells: E. coli BL21(DE3)
T4 sequence (Q9F663 25-293, looked up): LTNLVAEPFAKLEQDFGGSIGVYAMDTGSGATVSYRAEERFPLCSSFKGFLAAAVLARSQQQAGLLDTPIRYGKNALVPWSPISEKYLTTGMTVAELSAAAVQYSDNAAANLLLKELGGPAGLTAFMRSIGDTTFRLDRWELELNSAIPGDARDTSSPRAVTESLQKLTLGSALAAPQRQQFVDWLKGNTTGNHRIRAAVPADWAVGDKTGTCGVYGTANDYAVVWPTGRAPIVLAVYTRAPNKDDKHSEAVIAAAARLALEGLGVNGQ
Outline: (§2)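 Read-out is the rate of β-lactam ring hydrolysis monitored by absorbance: 300 nm for imipenem with KPC-2 and 260 nm for cefotaxime with SHV-5. Recombinant native enzymes were first incubated with compound at 37 °C for 15 min. The IC50 is the inhibitor concentration that halves the initial hydrolysis rate.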

[7] = tested on: P. aeruginosa Ps296 expressing VIM-2; test: Broth microdilution MIC, P. aeruginosa Ps296 VIM-2; format: cell-based; conditions: fixed 4 μg/mL meropenem; CAMHB, 16-20 hours at 37° C.
Outline: as §1

[8] = tested on: K. pneumoniae 156319 expressing KPC-3; test: Broth microdilution MIC, K. pneumoniae 156319 KPC-3; format: cell-based; conditions: fixed 4 μg/mL meropenem; CAMHB, 16-20 hours at 37° C.
Outline: as §1

[9] = tested on: S. aureus MSSA-7 producing penicillinase PC-1; test: Broth microdilution MIC, S. aureus MSSA-7 PC-1; format: cell-based; conditions: fixed 4 μg/mL piperacillin; CAMHB, 16-20 hours at 37° C.
Outline: as §1

[10] = target: T5, SHV-5 β-lactamase (Class A ESBL) (Klebsiella pneumoniae, UniProt P0A3M1); test: β-Lactamase inhibition, SHV-5; format: biochemical
T5 construct: made in house; host or cells: E. coli BL21(DE3)
T5 sequence (P0A3M1 22-286): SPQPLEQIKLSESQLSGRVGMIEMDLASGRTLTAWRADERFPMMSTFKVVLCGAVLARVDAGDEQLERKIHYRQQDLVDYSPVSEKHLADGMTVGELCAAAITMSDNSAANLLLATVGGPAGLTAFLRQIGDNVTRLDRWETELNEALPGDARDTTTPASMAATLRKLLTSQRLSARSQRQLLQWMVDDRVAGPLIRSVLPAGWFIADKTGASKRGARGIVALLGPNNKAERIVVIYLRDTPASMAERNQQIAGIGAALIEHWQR
Outline: as §2

[11] = tested on: E. cloacae 144200 expressing Class C P99 AmpC; test: Broth microdilution MIC, E. cloacae 144200 p99 AmpC; format: cell-based; conditions: fixed 4 μg/mL ceftazidime; CAMHB, 16-20 hours at 37° C.
Outline: as §1

O=C(O)CN1CCN(CC(=O)N[C@H]2Cc3cccc(C(=O)O)c3OB2O)CC1 [Example 25, 3-[2-(4-Carboxymethyl-piperazin-1-yl)-acetylamino]-2-hydroxy-3,4-dihydro-2H-benzo[e][1,2]oxaborinine-8-carboxylic acid]
MIC of example compound in presence of fixed β-lactam: Fixed Mero, K. P. A-1797 KPC-2 VIM-4 [1]: B (the MIC in the presence of between 8 and 32 μg/mL of a β-lactamase inhibitor)
IC50 [2]: < 100 nM
IC50 [3]: < 100 nM
MIC of example compound in presence of fixed β-lactam: Fixed CAZ, E. coli ESBL4 CTX-M-15 [4]: C (the MIC in the presence of <4 μg/mL of a β-lactamase inhibitor)
IC50 [5]: 10000 to 100000 nM
IC50 [6]: 100 to 1000 nM
MIC of example compound in presence of fixed β-lactam: Fixed Mero, P. aerug. Ps296 VIM-2 [7]: B (the MIC in the presence of between 8 and 32 μg/mL of a β-lactamase inhibitor)
MIC of example compound in presence of fixed β-lactam: Fixed Mero, K. P. 156319 KPC-3 [8]: B (the MIC in the presence of between 8 and 32 μg/mL of a β-lactamase inhibitor)
MIC of example compound in presence of fixed β-lactam: Fixed Pip, S. aureus MSSA-7 PC-1 [9]: C (the MIC in the presence of <4 μg/mL of a β-lactamase inhibitor)
IC50 [10]: < 100 nM
MIC of example compound in presence of fixed β-lactam: Fixed CAZ, E. cl. 144200 p99 AmpC [11]: C (the MIC in the presence of <4 μg/mL of a β-lactamase inhibitor)

NC1CN(CC(=O)N[C@H]2Cc3cccc(C(=O)O)c3OB2O)CCC1O (stereo partly drawn) [Example 26, 3-[2-(3-Amino-4-hydroxy-piperidin-1-yl)-acetylamino]-2-hydroxy-3,4-dihydro-2H-benzo[e][1,2]oxaborinine-8-carboxylic acid]
MIC of example compound in presence of fixed β-lactam: Fixed Mero, K. P. A-1797 KPC-2 VIM-4 [1]: C (the MIC in the presence of <4 μg/mL of a β-lactamase inhibitor)
IC50 [2]: < 100 nM
IC50 [3]: 100 to 1000 nM
MIC of example compound in presence of fixed β-lactam: Fixed CAZ, E. coli ESBL4 CTX-M-15 [4]: C (the MIC in the presence of <4 μg/mL of a β-lactamase inhibitor)
IC50 [5]: 10000 to 100000 nM
IC50 [6]: 100 to 1000 nM
MIC of example compound in presence of fixed β-lactam: Fixed Mero, P. aerug. Ps296 VIM-2 [7]: C (the MIC in the presence of <4 μg/mL of a β-lactamase inhibitor)
MIC of example compound in presence of fixed β-lactam: Fixed Mero, K. P. 156319 KPC-3 [8]: C (the MIC in the presence of <4 μg/mL of a β-lactamase inhibitor)
MIC of example compound in presence of fixed β-lactam: Fixed Pip, S. aureus MSSA-7 PC-1 [9]: A (an MIC of the fixed β-lactam antibiotic in the presence of >32 μg/mL of a β-lactamase inhibitor)
IC50 [10]: 100 to 1000 nM
MIC of example compound in presence of fixed β-lactam: Fixed CAZ, E. cl. 144200 p99 AmpC [11]: C (the MIC in the presence of <4 μg/mL of a β-lactamase inhibitor)

NCCC(=O)NC1CCN(CC(=O)N[C@H]2Cc3cccc(C(=O)O)c3OB2O)CC1 [Example 27, 3-{2-[4-(3-Amino-propionylamino)-piperidin-1-yl]-acetylamino}-2-hydroxy-3,4-dihydro-2H-benzo[e][1,2]oxaborinine-8-carboxylic acid]
MIC of example compound in presence of fixed β-lactam: Fixed Mero, K. P. A-1797 KPC-2 VIM-4 [1]: B (the MIC in the presence of between 8 and 32 μg/mL of a β-lactamase inhibitor)
IC50 [2]: < 100 nM
IC50 [3]: 100 to 1000 nM
MIC of example compound in presence of fixed β-lactam: Fixed CAZ, E. coli ESBL4 CTX-M-15 [4]: C (the MIC in the presence of <4 μg/mL of a β-lactamase inhibitor)
IC50 [5]: 10000 to 100000 nM
IC50 [6]: 100 to 1000 nM
MIC of example compound in presence of fixed β-lactam: Fixed Mero, P. aerug. Ps296 VIM-2 [7]: B (the MIC in the presence of between 8 and 32 μg/mL of a β-lactamase inhibitor)
MIC of example compound in presence of fixed β-lactam: Fixed Mero, K. P. 156319 KPC-3 [8]: B (the MIC in the presence of between 8 and 32 μg/mL of a β-lactamase inhibitor)
MIC of example compound in presence of fixed β-lactam: Fixed Pip, S. aureus MSSA-7 PC-1 [9]: A (an MIC of the fixed β-lactam antibiotic in the presence of >32 μg/mL of a β-lactamase inhibitor)
IC50 [10]: 100 to 1000 nM
MIC of example compound in presence of fixed β-lactam: Fixed CAZ, E. cl. 144200 p99 AmpC [11]: B (the MIC in the presence of between 8 and 32 μg/mL of a β-lactamase inhibitor)

NC1CCN(CC(=O)N[C@H]2Cc3cccc(C(=O)O)c3OB2O)CC1N (stereo partly drawn) [Example 28, 3-[2-(3,4-Diamino-piperidin-1-yl)-acetylamino]-2-hydroxy-3,4-dihydro-2H-benzo[e][1,2]oxaborinine-8-carboxylic acid]
MIC of example compound in presence of fixed β-lactam: Fixed Mero, K. P. A-1797 KPC-2 VIM-4 [1]: B (the MIC in the presence of between 8 and 32 μg/mL of a β-lactamase inhibitor)
IC50 [2]: < 100 nM
IC50 [3]: < 100 nM
MIC of example compound in presence of fixed β-lactam: Fixed CAZ, E. coli ESBL4 CTX-M-15 [4]: C (the MIC in the presence of <4 μg/mL of a β-lactamase inhibitor)
IC50 [5]: 10000 to 100000 nM
IC50 [6]: < 100 nM
MIC of example compound in presence of fixed β-lactam: Fixed Mero, P. aerug. Ps296 VIM-2 [7]: C (the MIC in the presence of <4 μg/mL of a β-lactamase inhibitor)
MIC of example compound in presence of fixed β-lactam: Fixed Mero, K. P. 156319 KPC-3 [8]: C (the MIC in the presence of <4 μg/mL of a β-lactamase inhibitor)
MIC of example compound in presence of fixed β-lactam: Fixed Pip, S. aureus MSSA-7 PC-1 [9]: C (the MIC in the presence of <4 μg/mL of a β-lactamase inhibitor)
IC50 [10]: 10000 to 100000 nM
MIC of example compound in presence of fixed β-lactam: Fixed CAZ, E. cl. 144200 p99 AmpC [11]: C (the MIC in the presence of <4 μg/mL of a β-lactamase inhibitor)

NCC1CN(CC(=O)N[C@H]2Cc3cccc(C(=O)O)c3OB2O)CCC1N (stereo partly drawn) [Example 29, 3-[2-(4-Amino-3-aminomethyl-piperidin-1-yl)-acetylamino]-2-hydroxy-3,4-dihydro-2H-benzo[e][1,2]oxaborinine-8-carboxylic acid]
MIC of example compound in presence of fixed β-lactam: Fixed Mero, K. P. A-1797 KPC-2 VIM-4 [1]: B (the MIC in the presence of between 8 and 32 μg/mL of a β-lactamase inhibitor)
IC50 [2]: 100 to 1000 nM
IC50 [3]: 100 to 1000 nM
MIC of example compound in presence of fixed β-lactam: Fixed CAZ, E. coli ESBL4 CTX-M-15 [4]: C (the MIC in the presence of <4 μg/mL of a β-lactamase inhibitor)
IC50 [5]: 10000 to 100000 nM
IC50 [6]: 100 to 1000 nM
MIC of example compound in presence of fixed β-lactam: Fixed Mero, P. aerug. Ps296 VIM-2 [7]: C (the MIC in the presence of <4 μg/mL of a β-lactamase inhibitor)
MIC of example compound in presence of fixed β-lactam: Fixed Mero, K. P. 156319 KPC-3 [8]: C (the MIC in the presence of <4 μg/mL of a β-lactamase inhibitor)
MIC of example compound in presence of fixed β-lactam: Fixed Pip, S. aureus MSSA-7 PC-1 [9]: C (the MIC in the presence of <4 μg/mL of a β-lactamase inhibitor)
IC50 [10]: 1000 to 10000 nM
MIC of example compound in presence of fixed β-lactam: Fixed CAZ, E. cl. 144200 p99 AmpC [11]: C (the MIC in the presence of <4 μg/mL of a β-lactamase inhibitor)

NCCNC1CCN(CC(=O)N[C@H]2Cc3cccc(C(=O)O)c3OB2O)CC1 [Example 30, 3-{2-[4-(2-Amino-ethylamino)-piperidin-1-yl]-acetylamino}-2-hydroxy-3,4-dihydro-2H-benzo[e][1,2]oxaborinine-8-carboxylic acid]
MIC of example compound in presence of fixed β-lactam: Fixed Mero, K. P. A-1797 KPC-2 VIM-4 [1]: A (an MIC of the fixed β-lactam antibiotic in the presence of >32 μg/mL of a β-lactamase inhibitor)
IC50 [2]: < 100 nM
IC50 [3]: < 100 nM
MIC of example compound in presence of fixed β-lactam: Fixed CAZ, E. coli ESBL4 CTX-M-15 [4]: C (the MIC in the presence of <4 μg/mL of a β-lactamase inhibitor)
IC50 [5]: 1000 to 10000 nM
IC50 [6]: < 100 nM
MIC of example compound in presence of fixed β-lactam: Fixed Mero, P. aerug. Ps296 VIM-2 [7]: B (the MIC in the presence of between 8 and 32 μg/mL of a β-lactamase inhibitor)
MIC of example compound in presence of fixed β-lactam: Fixed Mero, K. P. 156319 KPC-3 [8]: C (the MIC in the presence of <4 μg/mL of a β-lactamase inhibitor)
MIC of example compound in presence of fixed β-lactam: Fixed Pip, S. aureus MSSA-7 PC-1 [9]: A (an MIC of the fixed β-lactam antibiotic in the presence of >32 μg/mL of a β-lactamase inhibitor)
IC50 [10]: < 100 nM
MIC of example compound in presence of fixed β-lactam: Fixed CAZ, E. cl. 144200 p99 AmpC [11]: C (the MIC in the presence of <4 μg/mL of a β-lactamase inhibitor)
